Results from patent publication US5856356A, “Use of strontium salts and pharmaceutical compositions thereof for the treatment of arthrosis” (Adir et Compagnie, priority 1996, dated 1999).

Tested on: human chondrocytes

In the case of `[Cl-].[Cl-].[Sr+2]` [SrCl2, strontium chloride], the “production of sulfated glycoseaminoglycans” value (24 hours, concentration printed "210^-3 M", control 43 871 ± 1124, p < 0.05) was 52 839 c.p.m./10^6 cells and the “effect on the synthesis of proteoglycans / stimulation of the chondroformation (in words)” value (human chondrocytes, same effects as compound A) was “exhibits the same effects”.
